These results are taken from PubChem BioAssay AID1259407 (Chemical Carcinogenesis Research Information System (CCRIS), 2018).

This series has as its system CCRIS mutagenicity, Ames/micronucleus/aberration tests. The experiment in a line: CCRIS mutagenicity studies.
Setting [1] is: Test System: AMES SALMONELLA TYPHIMURIUM, Strain/Indicator: TA100, Metabolic Activation: NONE, Method: STANDARD PLATE.
[2] abbreviates: Test System: AMES SALMONELLA TYPHIMURIUM, Strain/Indicator: TA100, Metabolic Activation: RAT, LIVER, S-9, AROCLOR 1254, Method: STANDARD PLATE.
The mark [3] stands for this setting: Test System: AMES SALMONELLA TYPHIMURIUM, Strain/Indicator: TA98, Metabolic Activation: NONE, Method: STANDARD PLATE.
[4] abbreviates: Test System: AMES SALMONELLA TYPHIMURIUM, Strain/Indicator: TA98, Metabolic Activation: RAT, LIVER, S-9, AROCLOR 1254, Method: STANDARD PLATE.
[5] abbreviates: Test System: AMES SALMONELLA TYPHIMURIUM, Strain/Indicator: TA102, Metabolic Activation: NONE, Method: PREINCUBATION

Activity calls are given as the source filed them. How the calls were made is not given here.

For the molecule `C[N+]1(CCNP(=S)(NCC[N+]2(C)Cc3c(ccc4c3OCO4)[C@@H]3[C@H]2c2cc4c(cc2C[C@@H]3O)OCO4)NCC[N+]2(C)Cc3c(ccc4c3OCO4)[C@@H]3[C@H]2c2cc4c(cc2C[C@@H]3O)OCO4)Cc2c(ccc3c2OCO3)[C@@H]2[C@H]1c1cc3c(cc1C[C@@H]2O)OCO3` (some centres not stated), the mutagenic call runs as follows: under setting [1], “inactive; negative”; under setting [2], “inactive; negative”.
`O=C(CC(O)(CC(=O)OCCBr)C(=O)OCCBr)OCCBr`: the mutagenic call is “inactive; negative” under setting [1] and “active; positive” under setting [2].
For `Nc1ccc2nc3ccccc3cc2c1`, the mutagenic call was “inactive; negative” (Test System: AMES SALMONELLA TYPHIMURIUM, Strain/Indicator: TA1535, Metabolic Activation: NONE, Method: PREINCUBATION); “active; positive” (Test System: AMES SALMONELLA TYPHIMURIUM, Strain/Indicator: TA1535, Metabolic Activation: RAT, LIVER, S-9, TETRACHLOROBIPHENYL, Method: PREINCUBATION); “active; positive” (Test System: AMES SALMONELLA TYPHIMURIUM, Strain/Indicator: TA1537, Metabolic Activation: NONE, Method: PREINCUBATION); “active; positive” (Test System: AMES SALMONELLA TYPHIMURIUM, Strain/Indicator: TA1537, Metabolic Activation: RAT, LIVER, S-9, TETRACHLOROBIPHENYL, Method: PREINCUBATION); “inactive; negative” (Test System: AMES SALMONELLA TYPHIMURIUM, Strain/Indicator: TA1538, Metabolic Activation: NONE, Method: PREINCUBATION); “active; positive” (Test System: AMES SALMONELLA TYPHIMURIUM, Strain/Indicator: TA1538, Metabolic Activation: RAT, LIVER, S-9, TETRACHLOROBIPHENYL, Method: PREINCUBATION). The mutagenic call is “inactive; negative” (Test System: AMES SALMONELLA TYPHIMURIUM, Strain/Indicator: TA1975, Metabolic Activation: RAT, LIVER, S-9, TETRACHLOROBIPHENYL, Method: PREINCUBATION); “inactive; negative” (Test System: AMES SALMONELLA TYPHIMURIUM, Strain/Indicator: TA1977, Metabolic Activation: NONE, Method: PREINCUBATION); “active; positive” (Test System: AMES SALMONELLA TYPHIMURIUM, Strain/Indicator: TA1977, Metabolic Activation: RAT, LIVER, S-9, TETRACHLOROBIPHENYL, Method: PREINCUBATION); “active; positive” (Test System: AMES SALMONELLA TYPHIMURIUM, Strain/Indicator: TA1978, Metabolic Activation: RAT, LIVER, S-9, TETRACHLOROBIPHENYL, Method: PREINCUBATION).
In the case of `O=C1c2cccc3ccc4ccc5cccc1c5c4c23`, the mutagenic call by setting is: under setting [3], “inactive; negative”; under setting [1], “inactive; negative”.
Consider `COC(=O)N[C@H]1[C@H](O[C@H]2[C@H](O)[C@@H](N)[C@H](O[C@H]3[C@H](O)[C@@H](N)[C@H](O)O[C@@H]3CO)O[C@@H]2CO)O[C@H](CO)[C@@H](O[C@@H]2O[C@H](CO)[C@@H](O[C@@H]3O[C@H](CO)[C@@H](O[C@@H]4O[C@H](CO)[C@@H](O[C@@H]5O[C@H](CO)[C@@H](O[C@@H]6O[C@H](CO)[C@@H](O[C@@H]7O[C@H](CO)[C@@H](O)[C@H](O)[C@H]7N)[C@H](O)[C@H]6N)[C@H](O)[C@H]5N)[C@H](O)[C@H]4N)[C@H](O)[C@H]3N)[C@H](O)[C@H]2N)[C@@H]1O`, for which the mutagenic call is, setting by setting: (End Point: IN VIVO CHROMOSOMAL ABERRATIONS, Test System: BONE MARROW CELLS (LYMPHOCYTES), Species: MOUSE, Strain/Sex: ICR/MALE, Route: DRINKING WATER) “inactive; negative”; (End Point: IN VIVO CHROMOSOMAL ABERRATIONS, Test System: BONE MARROW, Species: MOUSE, Strain/Sex: ICR/MALE, Route: DRINKING WATER) “inactive; negative”; (End Point: IN VIVO CHROMOSOMAL ABERRATIONS, Test System: BONE MARROW, Species: MOUSE, Strain/Sex: ICR/PARENT, F1, F2, F3 GENERATIONS, Strain/Sex: ICR/PARENT, F1, F2, F3 GENERATIONS, Route: DRINKING WATER) “inactive; negative in all generations”; (End Point: IN VIVO MICRONUCLEUS, Test System: BONE MARROW POLYCHROMATIC ERYTHROCYTES, Species: MOUSE, Strain/Sex: ICR/MALE, Route: DRINKING WATER) “inactive; negative”.
As to `O=C([O-])/C=C/C(=O)[O-].[Fe+2]`, the mutagenic call by setting is: (Test System: AMES SALMONELLA TYPHIMURIUM, Strain/Indicator: TA98, Metabolic Activation: HAMSTER, LIVER, S-9, AROCLOR 1254, Method: STANDARD PLATE) “active; positive”; under setting [3], “inactive; negative”; under setting [4], “active; positive”; (Test System: AMES SALMONELLA TYPHIMURIUM, Strain/Indicator: TA100, Metabolic Activation: HAMSTER, LIVER, S-9, AROCLOR 1254, Method: STANDARD PLATE) “inactive; negative”; under setting [1], “inactive; negative”; under setting [2], “inactive; negative”. Also, the mutagenic call is, setting by setting: (Test System: AMES SALMONELLA TYPHIMURIUM, Strain/Indicator: TA102, Metabolic Activation: HAMSTER, LIVER, S-9, AROCLOR 1254, Method: STANDARD PLATE) “inactive; negative”; under setting [5], “inactive; negative”; (Test System: AMES SALMONELLA TYPHIMURIUM, Strain/Indicator: TA102, Metabolic Activation: NONE, Method: STANDARD PLATE) “inactive; negative”; (Test System: AMES SALMONELLA TYPHIMURIUM, Strain/Indicator: TA102, Metabolic Activation: RAT, LIVER, S-9, AROCLOR 1254, Method: STANDARD PLATE) “inactive; negative”; (Test System: MOUSE LYMPHOMA, Strain/Indicator: L5178Y (TK+/TK-), Metabolic Activation: NONE, Method: SUSPENSION/PLATE) “active; positive. reevaluation of results: positive”; (Test System: MOUSE LYMPHOMA, Strain/Indicator: L5178Y (TK+/TK-), Metabolic Activation: RAT, LIVER, S-9, AROCLOR 1254, Method: SUSPENSION/PLATE) “inactive; negative. reevaluation of results: negative”.
As for `CN(Cc1ccc(F)cc1)N=O`, the mutagenic call is “active; positive” (Test System: AMES SALMONELLA TYPHIMURIUM, Strain/Indicator: TA1535, Metabolic Activation: HAMSTER, LIVER, S-9, AROCLOR 1254, Method: STANDARD PLATE) and “inactive; negative” (Test System: AMES SALMONELLA TYPHIMURIUM, Strain/Indicator: TA1535, Metabolic Activation: NONE, Method: STANDARD PLATE).
On to `Oc1ccc(ON2P(Oc3ccc(O)cc3)N=P(Oc3ccc(O)cc3)(Oc3ccc(O)cc3)N(Oc3ccc(O)cc3)P2Oc2ccc(O)cc2)cc1` (configuration not stated), for which the mutagenic call under setting [3] is “inactive; negative”, the mutagenic call under setting [4] is “inactive; negative”, the mutagenic call under setting [1] is “inactive; negative” and the mutagenic call under setting [2] was “inactive; negative”.
With `O=C(O)[C@H](O)[C@@H](O)[C@H](O)[C@H](O)CO`, the mutagenic call runs as follows: (Test System: AMES SALMONELLA TYPHIMURIUM, Strain/Indicator: TA97, Metabolic Activation: NONE, Method: PREINCUBATION) “inactive; negative”; (Test System: AMES SALMONELLA TYPHIMURIUM, Strain/Indicator: TA97, Metabolic Activation: RAT, LIVER, S-9, AROCLOR 1254, Method: PREINCUBATION) “inactive; negative”; under setting [5], “inactive; negative”; (Test System: AMES SALMONELLA TYPHIMURIUM, Strain/Indicator: TA102, Metabolic Activation: RAT, LIVER, S-9, AROCLOR 1254, Method: PREINCUBATION) “inactive; negative”.
Take `Cc1cc(O)c2c(c1O)C(=O)c1ccccc1C2=O`: the mutagenic call was “inactive; negative” (Test System: AMES SALMONELLA TYPHIMURIUM, Strain/Indicator: TA98, Metabolic Activation: NONE, Method: PREINCUBATION); “active; positive” (Test System: AMES SALMONELLA TYPHIMURIUM, Strain/Indicator: TA98, Metabolic Activation: RAT, LIVER, S-9, PCB, Method: PREINCUBATION); “inactive; negative” (Test System: AMES SALMONELLA TYPHIMURIUM, Strain/Indicator: TA100, Metabolic Activation: NONE, Method: PREINCUBATION); “active; positive” (Test System: AMES SALMONELLA TYPHIMURIUM, Strain/Indicator: TA100, Metabolic Activation: RAT, LIVER, S-9, PCB, Method: PREINCUBATION).
As for `[U]`, the mutagenic call (End Point: In vitro chromosomal aberrations, Test System: Human colon tumor line LT97, Metabolic Activation: None, Method: 24 color FISH) was “active; positive (breaks at tumor-relevant chromosomes 5, 12, and 17); uranium and nitri”.
